Assay results reported in article PMC6199744, “Development of Chemical Proteomics for the Folateome and Analysis of the Kinetoplastid Folateome” (ACS Infectious Diseases, 2018).
Read-outs that look alike come from different tables or passages of the source.

Experiments:
Type in all cases: binding
[1] = target: T1, HeLa cell extract proteins (Homo sapiens, UniProt P48651)
T1 construct: endogenous in cells; host or cells: HeLa cell extract

[2] = target: T2, HeLa cell extract proteins (Homo sapiens, UniProt Q9UK99)
T2 construct: endogenous in cells; host or cells: HeLa cell extract
T2 sequence (Q9UK99 1-471): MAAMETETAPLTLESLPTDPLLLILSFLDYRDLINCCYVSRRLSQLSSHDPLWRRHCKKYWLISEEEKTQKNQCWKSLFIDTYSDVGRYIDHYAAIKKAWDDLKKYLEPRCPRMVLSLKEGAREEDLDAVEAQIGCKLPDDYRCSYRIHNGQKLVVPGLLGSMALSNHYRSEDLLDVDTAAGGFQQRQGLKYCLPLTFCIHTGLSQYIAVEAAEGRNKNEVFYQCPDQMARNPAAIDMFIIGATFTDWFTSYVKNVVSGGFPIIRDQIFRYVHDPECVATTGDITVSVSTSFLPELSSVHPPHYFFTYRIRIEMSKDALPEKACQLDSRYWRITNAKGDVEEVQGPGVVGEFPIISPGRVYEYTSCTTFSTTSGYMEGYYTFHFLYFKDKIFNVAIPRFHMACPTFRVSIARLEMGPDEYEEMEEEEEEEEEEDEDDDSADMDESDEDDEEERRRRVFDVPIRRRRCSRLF

[3] = target: T3, HeLa cell extract proteins (Homo sapiens, UniProt Q3ZCQ8)
T3 construct: endogenous in cells; host or cells: HeLa cell extract
T3 sequence (Q3ZCQ8 45-353): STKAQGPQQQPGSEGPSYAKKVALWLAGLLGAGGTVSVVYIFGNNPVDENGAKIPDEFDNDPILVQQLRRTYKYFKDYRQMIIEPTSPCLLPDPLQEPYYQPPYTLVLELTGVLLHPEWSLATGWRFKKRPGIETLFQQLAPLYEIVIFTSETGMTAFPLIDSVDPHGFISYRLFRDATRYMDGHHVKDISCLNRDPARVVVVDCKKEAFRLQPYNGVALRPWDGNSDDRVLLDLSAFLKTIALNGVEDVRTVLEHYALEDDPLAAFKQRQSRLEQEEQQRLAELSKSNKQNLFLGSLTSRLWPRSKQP

[4] = target: T4, HeLa cell extract proteins (Homo sapiens, UniProt O14980)
T4 construct: endogenous in cells; host or cells: HeLa cell extract
T4 sequence (O14980 whole entry): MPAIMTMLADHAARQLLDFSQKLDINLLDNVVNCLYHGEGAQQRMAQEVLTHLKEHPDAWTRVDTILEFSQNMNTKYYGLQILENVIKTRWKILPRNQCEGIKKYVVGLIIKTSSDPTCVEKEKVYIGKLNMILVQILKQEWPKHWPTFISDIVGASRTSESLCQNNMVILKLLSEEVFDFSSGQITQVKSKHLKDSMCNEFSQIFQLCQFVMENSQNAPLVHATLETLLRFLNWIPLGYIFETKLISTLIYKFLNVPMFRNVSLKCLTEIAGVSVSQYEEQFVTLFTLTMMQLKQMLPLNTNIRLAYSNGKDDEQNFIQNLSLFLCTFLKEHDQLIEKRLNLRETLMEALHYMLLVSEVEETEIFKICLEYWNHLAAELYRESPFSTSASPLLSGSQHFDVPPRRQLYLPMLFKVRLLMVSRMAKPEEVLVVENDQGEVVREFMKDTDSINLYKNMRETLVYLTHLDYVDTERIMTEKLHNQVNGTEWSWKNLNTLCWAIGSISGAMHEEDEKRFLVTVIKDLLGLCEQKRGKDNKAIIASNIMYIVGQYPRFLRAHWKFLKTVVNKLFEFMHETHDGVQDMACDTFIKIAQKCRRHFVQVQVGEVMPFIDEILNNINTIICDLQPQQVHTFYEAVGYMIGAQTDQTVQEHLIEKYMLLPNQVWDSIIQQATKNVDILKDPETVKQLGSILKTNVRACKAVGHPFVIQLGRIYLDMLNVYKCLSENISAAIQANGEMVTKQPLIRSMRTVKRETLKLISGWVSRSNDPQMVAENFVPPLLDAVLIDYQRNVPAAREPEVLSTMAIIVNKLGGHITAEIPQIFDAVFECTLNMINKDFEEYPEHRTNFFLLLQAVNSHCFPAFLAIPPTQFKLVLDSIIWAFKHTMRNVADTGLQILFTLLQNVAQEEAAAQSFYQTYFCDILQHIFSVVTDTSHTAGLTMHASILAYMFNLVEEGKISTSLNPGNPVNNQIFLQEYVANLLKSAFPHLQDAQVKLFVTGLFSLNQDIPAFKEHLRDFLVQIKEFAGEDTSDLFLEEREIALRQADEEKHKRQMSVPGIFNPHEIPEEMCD

[5] = target: T5, HeLa cell extract proteins (Homo sapiens, UniProt Q7Z4G4)
T5 construct: endogenous in cells; host or cells: HeLa cell extract
T5 sequence (Q7Z4G4 1-463): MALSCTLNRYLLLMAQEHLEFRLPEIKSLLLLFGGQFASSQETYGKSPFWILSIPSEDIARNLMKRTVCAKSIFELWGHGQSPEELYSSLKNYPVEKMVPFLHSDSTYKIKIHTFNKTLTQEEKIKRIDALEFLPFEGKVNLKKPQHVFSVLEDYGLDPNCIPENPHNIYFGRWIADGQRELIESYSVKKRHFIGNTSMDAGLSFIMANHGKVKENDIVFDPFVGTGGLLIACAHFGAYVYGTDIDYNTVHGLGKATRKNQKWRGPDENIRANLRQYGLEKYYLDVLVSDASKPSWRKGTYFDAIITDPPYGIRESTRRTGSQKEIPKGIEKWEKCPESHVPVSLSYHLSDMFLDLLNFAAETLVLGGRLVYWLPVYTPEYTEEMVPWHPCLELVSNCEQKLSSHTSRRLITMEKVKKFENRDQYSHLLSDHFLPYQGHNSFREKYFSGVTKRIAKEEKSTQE

[6] = target: T6, HeLa cell extract proteins (Homo sapiens, UniProt P55735)
T6 construct: endogenous in cells; host or cells: HeLa cell extract
T6 sequence (P55735 1-322): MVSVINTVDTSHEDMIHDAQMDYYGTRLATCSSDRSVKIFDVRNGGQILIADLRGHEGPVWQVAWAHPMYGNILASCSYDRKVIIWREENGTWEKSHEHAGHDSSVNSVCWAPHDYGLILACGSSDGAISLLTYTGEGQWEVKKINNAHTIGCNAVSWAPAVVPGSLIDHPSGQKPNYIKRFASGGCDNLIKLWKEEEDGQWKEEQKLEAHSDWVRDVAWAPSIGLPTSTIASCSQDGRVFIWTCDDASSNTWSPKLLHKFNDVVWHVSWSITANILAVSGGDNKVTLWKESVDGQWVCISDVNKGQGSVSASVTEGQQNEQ

[7] = target: T7, HeLa cell extract proteins (Homo sapiens, UniProt P28070)
T7 construct: endogenous in cells; host or cells: HeLa cell extract
T7 sequence (P28070 46-264): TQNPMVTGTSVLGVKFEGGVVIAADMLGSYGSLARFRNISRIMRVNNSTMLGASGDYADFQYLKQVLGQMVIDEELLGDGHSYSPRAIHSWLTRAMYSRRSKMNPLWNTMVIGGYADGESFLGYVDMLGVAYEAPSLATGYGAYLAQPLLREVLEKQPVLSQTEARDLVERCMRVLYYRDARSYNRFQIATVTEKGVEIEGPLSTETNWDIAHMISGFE

[8] = target: T8, HeLa cell extract proteins (Homo sapiens, UniProt P33993)
T8 construct: endogenous in cells; host or cells: HeLa cell extract
T8 sequence (P33993 whole entry): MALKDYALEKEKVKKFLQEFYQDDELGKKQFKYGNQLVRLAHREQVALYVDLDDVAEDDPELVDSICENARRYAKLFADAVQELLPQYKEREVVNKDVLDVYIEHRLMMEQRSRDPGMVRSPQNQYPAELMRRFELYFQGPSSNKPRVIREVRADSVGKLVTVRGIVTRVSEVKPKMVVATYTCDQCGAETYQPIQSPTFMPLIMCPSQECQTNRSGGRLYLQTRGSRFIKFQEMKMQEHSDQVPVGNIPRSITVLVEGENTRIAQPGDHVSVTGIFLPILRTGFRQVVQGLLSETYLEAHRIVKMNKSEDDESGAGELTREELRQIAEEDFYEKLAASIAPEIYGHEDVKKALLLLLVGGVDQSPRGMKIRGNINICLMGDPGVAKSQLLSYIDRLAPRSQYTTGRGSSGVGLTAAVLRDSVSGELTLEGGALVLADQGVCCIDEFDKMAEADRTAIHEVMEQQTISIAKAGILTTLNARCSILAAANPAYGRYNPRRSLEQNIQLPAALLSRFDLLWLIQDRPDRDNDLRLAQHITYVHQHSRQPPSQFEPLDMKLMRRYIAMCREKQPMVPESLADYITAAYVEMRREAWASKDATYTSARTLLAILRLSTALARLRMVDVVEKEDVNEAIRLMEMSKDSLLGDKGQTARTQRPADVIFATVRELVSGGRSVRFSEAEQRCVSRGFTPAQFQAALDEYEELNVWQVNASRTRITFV

[9] = target: T9, HeLa cell extract proteins (Homo sapiens, UniProt O75152)
T9 construct: endogenous in cells; host or cells: HeLa cell extract
T9 sequence (O75152 whole entry): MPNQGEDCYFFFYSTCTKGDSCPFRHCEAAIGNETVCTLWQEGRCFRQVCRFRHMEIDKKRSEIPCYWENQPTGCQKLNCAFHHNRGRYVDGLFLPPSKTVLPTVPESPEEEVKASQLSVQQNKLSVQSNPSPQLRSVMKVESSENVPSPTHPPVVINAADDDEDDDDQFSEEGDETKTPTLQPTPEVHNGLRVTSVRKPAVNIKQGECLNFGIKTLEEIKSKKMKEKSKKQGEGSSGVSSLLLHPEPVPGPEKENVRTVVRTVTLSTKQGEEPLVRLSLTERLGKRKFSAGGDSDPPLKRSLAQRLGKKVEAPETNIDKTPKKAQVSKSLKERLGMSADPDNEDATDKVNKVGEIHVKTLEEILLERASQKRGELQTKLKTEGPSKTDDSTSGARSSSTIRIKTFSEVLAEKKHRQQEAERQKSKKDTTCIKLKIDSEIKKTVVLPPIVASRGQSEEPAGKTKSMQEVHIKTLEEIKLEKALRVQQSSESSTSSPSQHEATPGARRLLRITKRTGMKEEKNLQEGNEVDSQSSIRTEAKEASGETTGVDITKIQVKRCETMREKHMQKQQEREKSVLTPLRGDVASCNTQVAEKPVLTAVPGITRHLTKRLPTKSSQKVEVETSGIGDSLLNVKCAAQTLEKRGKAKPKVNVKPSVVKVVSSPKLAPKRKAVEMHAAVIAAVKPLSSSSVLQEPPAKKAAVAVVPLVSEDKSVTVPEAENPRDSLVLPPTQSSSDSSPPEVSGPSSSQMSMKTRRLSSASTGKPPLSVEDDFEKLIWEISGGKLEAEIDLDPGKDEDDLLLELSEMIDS

[10] = target: T10, HeLa cell extract proteins (Homo sapiens, UniProt Q9Y244)
T10 construct: endogenous in cells; host or cells: HeLa cell extract
T10 sequence (Q9Y244 1-141): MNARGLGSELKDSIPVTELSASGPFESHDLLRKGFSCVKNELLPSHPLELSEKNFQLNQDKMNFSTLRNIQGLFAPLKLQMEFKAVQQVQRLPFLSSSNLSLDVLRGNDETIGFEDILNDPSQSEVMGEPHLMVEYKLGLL

[11] = target: T11, HeLa cell extract proteins (Homo sapiens, UniProt P43362)
T11 construct: endogenous in cells; host or cells: HeLa cell extract
T11 sequence (P43362 1-315): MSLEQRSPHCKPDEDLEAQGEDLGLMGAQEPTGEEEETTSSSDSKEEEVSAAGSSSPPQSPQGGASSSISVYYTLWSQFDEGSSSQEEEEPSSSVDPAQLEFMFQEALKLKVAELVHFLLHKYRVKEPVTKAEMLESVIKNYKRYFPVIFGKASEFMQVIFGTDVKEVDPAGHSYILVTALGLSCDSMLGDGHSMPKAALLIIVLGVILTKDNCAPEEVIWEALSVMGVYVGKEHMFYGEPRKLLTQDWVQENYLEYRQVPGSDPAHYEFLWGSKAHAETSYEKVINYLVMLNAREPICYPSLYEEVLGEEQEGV

[12] = target: T12, HeLa cell extract proteins (Homo sapiens, UniProt P61604)
T12 construct: endogenous in cells; host or cells: HeLa cell extract
T12 sequence (P61604 whole entry): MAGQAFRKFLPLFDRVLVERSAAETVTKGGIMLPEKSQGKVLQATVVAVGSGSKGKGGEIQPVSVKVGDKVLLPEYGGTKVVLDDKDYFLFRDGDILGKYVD

[13] = target: T13, HeLa cell extract proteins (Homo sapiens, UniProt Q15293)
T13 construct: endogenous in cells; host or cells: HeLa cell extract
T13 sequence (Q15293 30-331): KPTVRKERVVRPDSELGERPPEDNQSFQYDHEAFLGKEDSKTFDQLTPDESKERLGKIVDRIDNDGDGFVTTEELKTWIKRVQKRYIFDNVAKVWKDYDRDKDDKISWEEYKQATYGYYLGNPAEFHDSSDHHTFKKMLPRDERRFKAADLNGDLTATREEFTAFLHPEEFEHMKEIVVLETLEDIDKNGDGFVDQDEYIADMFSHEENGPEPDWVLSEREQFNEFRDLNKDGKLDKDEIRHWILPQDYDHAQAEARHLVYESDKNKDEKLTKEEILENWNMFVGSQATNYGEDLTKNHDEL

[14] = HeLa, protein FBXO3 (ISOFORM 1 OF F-BOX ONLY PROTEIN 3)
[15] = HeLa, protein ZC3H11A (ZINC FINGER CCCH DOMAIN-CONTAINING PROTEIN 11A)

Row | Structure (SMILES) | fold changes relative to vehicle control ([1]; HeLa, protein PTDSS1) | fold changes relative to vehicle control [2, 14] | fold changes relative to vehicle control ([3]; HeLa, protein TIMM50) | fold changes relative to vehicle control ([4]; HeLa, captured protein XPO1) | fold changes relative to vehicle control ([5]; HeLa, captured protein TRMT11) | fold changes relative to vehicle control ([6]; HeLa, captured protein SEC13) | fold changes relative to vehicle control ([7]; HeLa, protein PSMB4) | fold changes relative to vehicle control ([8]; protein MCM7, HeLa) | fold changes relative to vehicle control [9, 15] | fold changes relative to vehicle control ([10]; protein POMP, HeLa) | fold changes relative to vehicle control ([11]; HeLa, protein MAGEA9) | fold changes relative to vehicle control ([12]; HeLa, protein HSPE1) | fold changes relative to vehicle control ([13]; HeLa, protein RCN1) | fold changes relative to vehicle control ([1]; captured protein PTDSS1, HeLa) | fold changes relative to vehicle control ([2]; protein FBXO3, HeLa) | fold changes relative to vehicle control ([3]; captured protein TIMM50, HeLa) | fold changes relative to vehicle control ([4]; HeLa, protein XPO1) | fold changes relative to vehicle control ([5]; HeLa, protein TRMT11) | fold changes relative to vehicle control ([6]; HeLa, protein SEC13) | fold changes relative to vehicle control ([7]; protein PSMB4, HeLa) | also measured
1 | Nc1nc2c(c(=O)[nH]1)N(C=O)C(CNc1ccc(C(=O)N[C@@H](CCC(=O)O)C(=O)O)cc1)CN2 (stereo partly shown) [LEU, leucovorin] | 0.84 | 1.11 | 0.9 | 0.92 | 1.15 | 1.02 | 0.98 | 0.91 | 1.06 | 0.72 | 0.95 | 1.16 | 0.91 |  |  |  |  |  |  |  | 
2 | Nc1nc2[nH]cc(CCc3ccc(C(=O)N[C@@H](CCC(=O)O)C(=O)O)cc3)c2c(=O)[nH]1 [PTX, pemetrexed] |  |  |  |  |  |  |  |  |  |  |  |  |  |  |  |  |  |  |  |  | fold changes relative to vehicle control [1]: 0.8; fold changes relative to vehicle control [2]: 1.04; fold changes relative to vehicle control [3]: 0.87; fold changes relative to vehicle control [4]: 0.86; fold changes relative to vehicle control [5]: 0.85; fold changes relative to vehicle control [6]: 0.92; fold changes relative to vehicle control [7]: 0.97; fold changes relative to vehicle control [8]: 0.96; fold changes relative to vehicle control [9]: 0.96; fold changes relative to vehicle control [10]: 0.83; fold changes relative to vehicle control [11]: 0.82; fold changes relative to vehicle control [12]: 1.42; fold changes relative to vehicle control [13]: 1.02
3 | CCCCCCOc1ccc(Cc2cnc(N)nc2N)cc1 [compound 1] |  |  |  |  |  |  |  | 1.06 |  |  |  |  |  | 0.68 | 0.98 | 1 | 0.99 | 1.13 | 0.93 | 1.12 | fold changes relative to vehicle control ([9]; captured protein ZC3H11A, HeLa): 0.95; fold changes relative to vehicle control ([10]; captured protein POMP, HeLa): 0.66; fold changes relative to vehicle control ([11]; protein MAGEA9, HeLa): 0.78; fold changes relative to vehicle control ([12]; protein HSPE1, HeLa): 1.38; fold changes relative to vehicle control ([13]; captured protein RCN1, HeLa): 0.9
4 | CCCCCCOc1cccc(Cc2cnc(N)nc2N)c1 [compound 2] |  |  |  |  |  |  |  | 1.47 |  |  |  |  |  | 1.03 | 1.05 | 1.04 | 1.09 | 1.19 | 0.86 | 1.21 | fold changes relative to vehicle control ([9]; captured protein ZC3H11A, HeLa): 1.01; fold changes relative to vehicle control ([10]; captured protein POMP, HeLa): 0.89; fold changes relative to vehicle control ([11]; protein MAGEA9, HeLa): 1.24; fold changes relative to vehicle control ([12]; protein HSPE1, HeLa): 2.39; fold changes relative to vehicle control ([13]; captured protein RCN1, HeLa): 1.05
5 | Nc1nc2cccc(-c3ccccc3)c2n1Cc1ccc(Cl)c(Cl)c1 [compound 3] |  |  |  |  |  |  |  | 1.24 |  |  |  |  |  | 0.77 | 0.91 | 0.99 | 1.03 | 0.96 | 0.95 | 1.05 | fold changes relative to vehicle control ([9]; captured protein ZC3H11A, HeLa): 0.94; fold changes relative to vehicle control ([10]; captured protein POMP, HeLa): 0.86; fold changes relative to vehicle control ([11]; protein MAGEA9, HeLa): 0.92; fold changes relative to vehicle control ([12]; protein HSPE1, HeLa): 0.85; fold changes relative to vehicle control ([13]; captured protein RCN1, HeLa): 0.89
6 | NCCOCCOCC(=O)Nc1nc2ncc(CNc3ccc(C(=O)NC(CCC(=O)O)C(=O)O)cc3)nc2c(=O)[nH]1 (stereo not shown) [compound 6] | 0.89 | 1.01 | 0.96 | 0.93 | 0.86 | 0.86 | 1.04 | 1.16 | 0.92 | 0.86 | 1.04 | 1.69 | 1.11 |  |  |  |  |  |  |  | 
7 | NCCCNc1ccc(C(=O)NC(CCC(=O)O)C(=O)O)cc1 (stereo not shown) [compound 7] | 0.96 | 0.99 | 0.97 | 0.94 | 1.07 | 0.98 | 0.95 | 1.14 | 1.01 | 0.85 | 1 | 1.15 | 1.02 |  |  |  |  |  |  |  | 
